Data: patent US12043602B2, “Fendiline derivatives” (The Board of Regents of the University of Texas System, priority 2019, dated 2024)
“Also recorded” adds a separate entry of the source. Read-outs that look alike come from different tables or passages of the source.

Key:
[1] = test system: SK-CO-1 (Mut) colon tumor cells; experiment: CyQUANT proliferation assay; format: cell-based; details: Homo sapiens
Description: (§1) Madine Darby Canine Kidney epithelial cells (MDCK) stably co-expressing mGFP-tagged full length oncogenic mutant K-Ras (GFP—K-RASG12V) or mGFP-LactC2 (peptide probe for phosphatidylserine) and mCherry-tagged to the amino acids 179-189 of H-RasC181S, C184S (mCherry-CAAX, localizes primarily to endomembranes) were grown in DMEM-high glucose/sodium pyruvate/10% FBS. The medium was supplemented with 1× Penicillin/Streptomycin for fluorescence microscopy assays, to avoid any microbial contamination from the test compounds added. KLE and Hec50 cells were maintained in DMEM-F-12 medium supplemented with 10% FBS. Hec-1A and Hec-1B cells were grown in McCoy's 5a medium supplemented with 10% FBS. ESS-1 cells were grown in RPMI 1640 medium supplemented with 20% FBS. MPanc96 cells were grown in DMEM supplemented with 10% FBS, MiaPaCa-2 cells in DMEM supplemented with 10% FBS and 2.5% horse serum and all other cell lines were grown in RPMI 1640 supplemented with 10% FBS. All cancer cell media were supplemented with ×Penicillin/Streptomycin. All cell lines were grown at 37° C. with 5% CO2.
(§2) Cells were seeded in 96-well plates. After 24 h, fresh growth medium supplemented with 0.1% vehicle (DMSO), or various concentrations of drugs was added and cells were grown for 72 h. Cell numbers were quantified using the CyQUANT® Cell Proliferation Assay Kit (Molecular Probes, Life Technologies), according to the manufacturer's protocol. Fluorescence measurement was used as a measure of live cell number.

[2] = test system: Hec1B (Mut) endometrial tumor cells; experiment: CyQUANT proliferation assay; format: cell-based; details: Homo sapiens, HEC-1B
Description: as §1, §2

[3] = test system: CaCO-2 (WT) colon tumor cells; experiment: CyQUANT proliferation assay; format: cell-based; details: Homo sapiens
Description: as §1, §2

[4] = test system: NCI-H1299 (WT) lung tumor cells; experiment: CyQUANT proliferation assay; format: cell-based; details: Homo sapiens
Description: as §1, §2

[5] = test system: Hec1A (Mut) endometrial tumor cells; experiment: CyQUANT proliferation assay; format: cell-based; details: Homo sapiens, HEC-1-A
Description: as §1, §2

[6] = test system: MOH (Mut) pancreatic tumor cells; experiment: CyQUANT proliferation assay; format: cell-based
Description: as §1, §2

[7] = test system: KLE (WT) endometrial tumor cells; experiment: CyQUANT proliferation assay; format: cell-based; design: key: NE—Not efficacious; details: 72 h
Description: as §1, §2

[8] = test system: ESS-1 (WT) endometrial tumor cells; experiment: CyQUANT proliferation assay; format: cell-based; design: key: NE—Not efficacious; details: 72 h
Description: as §1, §2

[9] = test system: NCI H522 (WT) lung tumor cells; experiment: CyQUANT proliferation assay; format: cell-based; details: Homo sapiens
Description: as §1, §2

[10] = test system: BxPC-3 (WT) pancreatic tumor cells; experiment: CyQUANT proliferation assay; format: cell-based; details: Homo sapiens
Description: as §1, §2

blood vessels in tumors = experiment: Blood vessel lumen area in tumor sections; design: species or system nu/nu mice; details: mouse, in vivo
Description: FIG. 8A-E. (A) Nu/nu mice implanted with MiaPaCa-2 tumors were treated with vehicle (DMSO) or compounds intraperitoneally and tumor sizes were measured with an external caliper every 3-4 days. (B) Tumor sections were stained with GFP-Lys. (C) Tumor sections were stained with antibodies against pERK. (D) Tumor sections were stained with cleaved caspase 3. (E) Blood vessel lumen area was also measured in tumor sections.
(§3) Immunohistochemistry. 4-5 μm sections were deparaffinized, rehydrated, and treated with 10 mM sodium citrate for heat induced antigen retrieval. After quenching endogenous peroxidase, and blocking with 2.5% normal goat serum (Vector Laboratories S-1012), sections were incubated overnight at 4° C. with primary antibody diluted in blocking solution as recommended by manufacturer (Cell Signaling). Controls were incubated with diluted normal rabbit IgG. After incubation with biotinylated secondary antibody diluted 1:250 in blocking serum for 45 min at rt, sections were incubated with VECTASTAIN ABC reagent for 30 min, and for development of the DAB chromogen the Quanto substrate was used. Slides were counter stained with Hematoxylin. Five fields per stained section per xenograft were photographed at 10X. CC3+ and pERK+ area and number of events per field were quantitated via automated image analysis (NIS Elements BR analysis ver. 4.13.04). Vessel number and lumen area per field used the same software with manual settings to trace vessel wall contours. Antibodies used are as follows: CC3: Cell Signaling #9661, use at 1:300. (Cleaved Caspase-3 (Asp175) Antibody. Rabbit polyclonal. pERK: Cell Signaling #4370: Phospho-p44/42 MAPK (Erk1/2) (Thr202/Tyr204) (D13.14.4E) XP Rabbit mAB. CD31 (PECAM-1) (D8V9E) XP Rabbit mAB (Cell signal # (Cell signal #77699). Normal rabbit IgG: Santa Cruz #sc-3888. Concentration is 50 μg/mL or 50 ng/μL. Prepared with 5 μg in 200 μL blocking solution. Goat Anti-Rabbit IgG Biotin Conjugate: Calbiochem #OS03B, Concentration=1.2 mg/mL. Recommended to be used for IHC at 1 μg/mL.

pERK = experiment: Immunohistochemistry of tumor sections, pERK; design: species or system nu/nu mice; details: mouse, in vivo
Description: as §3

[11] = SK-CO-1, 72 h, read-out: IC50 proliferation SK-CO-1 (Mut)
[12] = SK-CO-1, Table 11, colon, read-out: IC50 (μM) SK-CO-1 (Mut)
[13] = 72 h, read-out: IC50 proliferation Hec1B (Mut)
[14] = Table 11, endometrial, read-out: IC50 (μM) Hec1B (Mut)
[15] = Caco-2, 72 h, read-out: IC50 proliferation CaCO-2 (WT)
[16] = Caco-2, Table 11, colon, read-out: IC50 (μM) Caco-2 (WT)
[17] = NCI-H1299, 72 h, read-out: IC50 proliferation NCI-H1299 (WT; N Mut in Table 6)
[18] = NCI-H1299, Table 11, lung, read-out: IC50 (μM) NCI H1299 (WT)
[19] = 72 h, read-out: IC50 proliferation Hec1A (Mut)
[20] = Table 11, endometrial, read-out: IC50 (μM) Hec1A (Mut)
[21] = 72 h, read-out: IC50 proliferation MOH (Mut)
[22] = Table 11, pancreatic, read-out: IC50 (μM) MOH (Mut)
[23] = NCI-H522, 72 h, read-out: IC50 proliferation NCI H522 (WT)
[24] = NCI-H522, Table 11, lung, read-out: IC50 (μM) NCI H522 (WT)
[25] = BXPC-3, 72 h, read-out: IC50 proliferation BxPC-3 (WT)
[26] = BXPC-3, Table 11, pancreatic, read-out: IC50 (μM) BxPC-3 (WT)

Structure (SMILES) | IC50 [1, 11] [µM] | IC50 [1, 12] [µM] | IC50 [2, 13] [µM] | IC50 [2, 14] [µM] | IC50 [3, 15] [µM] | IC50 [3, 16] [µM] | IC50 [4, 17] [µM] | IC50 [4, 18] [µM] | IC50 [5, 19] [µM] | IC50 [5, 20] [µM] | IC50 [6, 21] [µM] | IC50 [6, 22] [µM] | IC50 proliferation KLE (WT) [7] | IC50 proliferation ESS-1 (WT) [8] | IC50 [9, 23] [µM] | IC50 [9, 24] [µM] | IC50 [10, 25] [µM] | IC50 [10, 26] [µM] | pERK levels in tumors (pERK) | other results
CC(NCCC(c1ccccc1)c1ccccc1)c1ccccc1 (centres unmarked) [Fendiline] | 7.77 | 7.8 | 9.8 | 9.8 | 15.4 | 14.5 | 24.2 | 24.3 ± 2.1 | 9.48 | 9.48 | 11.1 | 11.1 | NE | NE | 29.6 | 29.6 ± 1.2 | 28.6 | 28.6 ± 5.9 | no significant effect | blood vessel dilation / vasodilatory effect in tumors (blood vessels in tumors): dilated
COc1ccc([C@@H](C)N(CC=C(c2ccccc2)c2ccccc2)CCN2CCCC2)cc1 [NY0331, (R)-N-(1-(4-methoxyphenyl)ethyl)-3,3-diphenyl-N-(2-(pyrrolidin-1-yl)ethyl)prop-2-en-1-amine] | – | – | – | – | – | – | – | – | – | – | 3.55 | 4 | – | – | – | – | – | – | reduced | blood vessel dilation / vasodilatory effect in tumors (blood vessels in tumors; listed as 12h): no vasodilatory effects; also recorded: not changed
COc1ccc([C@@H](C)N(CC=C(c2ccccc2)c2ccccc2)CCCN2CCN(C)CC2)cc1 [NY0335, (R)-N-(1-(4-methoxyphenyl)ethyl)-N-(3-(4-methylpiperazin-1-yl)propyl)-3,3-diphenylprop-2-en-1-amine] | 3.52 | 3.5 | 3.89 | 3.9 | 4.43 | 4.4 | 8.12 | 8.2 ± 1 | 2.34 | 2.3 | 3.77 | 3.8 | NE | NE | 23.5 | 23.5 ± 3.2 | 5.34 | 5.3 | reduced | blood vessel dilation / vasodilatory effect in tumors (blood vessels in tumors; listed as 22): no vasodilatory effects; also recorded: not changed
COc1ccc([C@@H](C)N(CC=C(c2ccccc2)c2ccccc2)CCN2CCN(C)CC2)cc1 [NY0244, (R)-N-(1-(4-methoxyphenyl)ethyl)-N-(2-(4-methylpiperazin-1-yl)ethyl)-3,3-diphenylprop-2-en-1-amine] | 3.28 | 3.3 | 3.28 | 3.3 | 5.1 | 5.1 | 8.24 | 8.2 | 2.6 | 2.6 | 3.67 | 3.7 | NE | NE | 28.2 | 28.2 | 5.73 | 5.7 | – | –
